{"source": "patent US20070286892A1", "about": "“COMPOSITIONS AND METHODS FOR PREVENTING OR REDUCING POSTOPERATIVE ILEUS AND GASTRIC STASIS IN MAMMALS” (priority 2006, published 2007)", "key": {"[1]": {"system": "gastric emptying and intestinal motility", "assay": "Charcoal transit model of postoperative ileus after abdominal surgery with cecal manipulation", "type": "in vivo, rat", "details": "charcoal distance 4 h after oral meal, percent of full intestinal length, male Sprague Dawley rats", "text": "The charcoal transit model is an accetable and established model to study the effects of abdominal surgery on intestinal motility. We followed the procedure as described by De Winter et al. (1997) (Reference: Effect of adrenergic and nitrergic blockade on experimental ileus in rats. British Journal of Pharmacology (1997) 120, 464-468. Benedicte Y. De Winter, Guy E. Boeckxstaens, Joris G. De Man, Tom G. Moreels, Arnold G. Herman & Paul A. Pelckmans). The model simulates the abdominal procedure in human and tests for gastric emptying and intestinal motility by the transfer of a charcoal meal fed to the animals.\nMale Sprague Dawley rats, weighing 250-275 g (8 in group) were anesthetized with a xylazine/ketamine cocktail, injected IM, the abdomen was shaved and disinfected with alcohol and Betadyne. A 2.5 cm incision was made from the xyphoid process caudally. The intestinal contents was exteriorized onto wet gauze. The cecum was manipulated gently for 1 minute. The abdominal contents were replaced, the treatment was applied and the body wall closed with 4-0 PDS for the fascia and muscle layers. The skin was closed with wound clips. Treatment groups included two control groups, surgery (incision only) and naïve, and […], high and low dose of Tranilast gel, high and low dose of Tranilast ORC, as well as gel alone and ORC alone. 8 rats were included in each group with a total of 64 rats. The high and low dose Tranilast gel and gel alone treatments were prepared as described in Example 1. The high and low dose Tranilast ORC and ORC alone treatments were prepared as described in Example 2.\nThe rats were treated with an oral solution of charcoal (10%) in acacia gum (2%). Four hours following oral administration rats were euthanized with Euthasole. The intestines were exteriorized and the distance traveled by the charcoal meal was measured as well as the full length of the intestines (from the pylorus through the anus). Results are expressed as percent of distance traveled relative to the full length of the intestines."}, "adhesions": {"system": "adhesions", "details": "local delivery in gel (NaCMC) formulations at the surgical site; cited from earlier work"}}}
{"compound": "COc1ccc(/C=C/C(=O)Nc2ccccc2C(=O)O)cc1OC", "note": "[Tranilast]", "values": [{"measurement": "% GI Transfer", "setting": "[1]; Gel preparation (3% Na-CMC), Tranilast high dose 18.0 mg applied locally", "result": 93.04, "unit": "%"}, {"measurement": "% GI Transfer", "setting": "[1]; Gel preparation (3% Na-CMC), Tranilast low dose 1.8 mg applied locally", "result": 90.68, "unit": "%"}, {"measurement": "% GI Transfer", "setting": "[1]; ORC preparation (INTERCEED mesh), Tranilast high dose 18.0 mg applied locally", "result": 62.18, "unit": "%"}, {"measurement": "% GI Transfer", "setting": "[1]; ORC preparation (INTERCEED mesh), Tranilast low dose 1.8 mg applied locally", "result": 46.11, "unit": "%"}, {"measurement": "Effects on wound healing at the surgical sites", "setting": "adhesions", "result": "no obvious effects on wound healing"}]}
